From ChEMBL document CHEMBL1139780, “Pentamer is the minimum structure for oligomannosylpeptoids to bind to concanavalin A” (Bioorg Med Chem Lett, 2007)
Active and inactive are the calls of the source. The calls are words filed in the database; no cut-off is given here.

Each compound was assayed against Concanavalin-A (Canavalia ensiformis) (UniProt P02866) (assay: Binding affinity to jack bean concanavalin A by enzyme-linked lectin assay).
Concanavalin-A (Canavalia ensiformis), sequence (P02866 whole entry): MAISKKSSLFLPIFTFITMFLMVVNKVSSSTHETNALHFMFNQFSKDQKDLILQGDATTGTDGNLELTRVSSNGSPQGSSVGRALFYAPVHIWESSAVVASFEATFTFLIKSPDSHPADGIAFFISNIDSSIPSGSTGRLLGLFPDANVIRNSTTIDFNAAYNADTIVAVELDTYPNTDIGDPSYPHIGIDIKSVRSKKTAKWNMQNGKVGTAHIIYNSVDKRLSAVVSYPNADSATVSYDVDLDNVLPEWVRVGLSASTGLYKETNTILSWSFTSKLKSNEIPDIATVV

Activity, active:
NC(=O)CN(CCO[C@H]1O[C@H](CO)[C@@H](O)[C@H](O)[C@@H]1O)C(=O)CN(CCO[C@H]1O[C@H](CO)[C@@H](O)[C@H](O)[C@@H]1O)C(=O)CN(CCO[C@H]1O[C@H](CO)[C@@H](O)[C@H](O)[C@@H]1O)C(=O)CN(CCO[C@H]1O[C@H](CO)[C@@H](O)[C@H](O)[C@@H]1O)C(=O)CN(CCO[C@H]1O[C@H](CO)[C@@H](O)[C@H](O)[C@@H]1O)C(=O)CNC(=O)CCCCCNC(=O)CCCCC1SC[C@@H]2NC(=O)N[C@H]12 (stereo not given in full)
CN(C)c1cccc2c(S(=O)(=O)N(CCO[C@H]3O[C@H](CO)[C@@H](O)[C@H](O)[C@@H]3O)CC(=O)N(CCO[C@H]3O[C@H](CO)[C@@H](O)[C@H](O)[C@@H]3O)CC(=O)N(CCO[C@H]3O[C@H](CO)[C@@H](O)[C@H](O)[C@@H]3O)CC(N)=O)cccc12
NC(=O)CCN(CCO[C@H]1O[C@H](CO)[C@@H](O)[C@H](O)[C@@H]1O)C(=O)CN(CCO[C@H]1O[C@H](CO)[C@@H](O)[C@H](O)[C@@H]1O)C(=O)CN(CCO[C@H]1O[C@H](CO)[C@@H](O)[C@H](O)[C@@H]1O)C(=O)CN(CCO[C@H]1O[C@H](CO)[C@@H](O)[C@H](O)[C@@H]1O)C(=O)CN(CCO[C@H]1O[C@H](CO)[C@@H](O)[C@H](O)[C@@H]1O)C(=O)CN(CCO[C@H]1O[C@H](CO)[C@@H](O)[C@H](O)[C@@H]1O)C(=O)CNC(=O)CCCCCNC(=O)CCCCC1SC[C@@H]2NC(=O)N[C@H]12 (stereo not given in full)
NC(=O)CN(CCO[C@H]1O[C@H](CO)[C@@H](O)[C@H](O)[C@@H]1O)C(=O)CN(CCO[C@H]1O[C@H](CO)[C@@H](O)[C@H](O)[C@@H]1O)C(=O)CN(CCO[C@H]1O[C@H](CO)[C@@H](O)[C@H](O)[C@@H]1O)C(=O)CN(CCO[C@H]1O[C@H](CO)[C@@H](O)[C@H](O)[C@@H]1O)C(=O)CN(CCO[C@H]1O[C@H](CO)[C@@H](O)[C@H](O)[C@@H]1O)C(=O)CNC(=O)CCCCC1SC[C@@H]2NC(=O)N[C@H]12 (stereo not given in full)
NC(=O)CCN(CCO[C@H]1O[C@H](CO)[C@@H](O)[C@H](O)[C@@H]1O)C(=O)CN(CCO[C@H]1O[C@H](CO)[C@@H](O)[C@H](O)[C@@H]1O)C(=O)CN(CCO[C@H]1O[C@H](CO)[C@@H](O)[C@H](O)[C@@H]1O)C(=O)CN(CCO[C@H]1O[C@H](CO)[C@@H](O)[C@H](O)[C@@H]1O)C(=O)CN(CCO[C@H]1O[C@H](CO)[C@@H](O)[C@H](O)[C@@H]1O)C(=O)CN(CCO[C@H]1O[C@H](CO)[C@@H](O)[C@H](O)[C@@H]1O)C(=O)CNC(=O)CCCCC1SC[C@@H]2NC(=O)N[C@H]12 (stereo not given in full)
